Measurements reported in the supplement of paper PMC10307832.

Columns and labels:
Assay in all cases: relative viability (nuclei count vs DMSO), 5 days (fraction); higher = more cells survive
NCI-H1993 = system: NCI-H1993
Method in brief: (§1)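 Medians of duplicate plates are given as relative viability. That measure is the nuclei count in treated wells divided by the count in vehicle wells. Counts were taken on 4× images of lung cancer cell lines in 1536-well plates, 5 days after pin-tool dosing the day after seeding with one drug alone or a fixed anchor-drug dose plus five library-drug doses (not always all listed) in √10 steps.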

NCI-H2126 = system: NCI-H2126
Method in brief: as §1

NCI-H2009 = system: NCI-H2009
Method in brief: as §1

PC-14 = system: PC-14
Method in brief: as §1

SK-MES-1 = system: SK-MES-1
Method in brief: as §1

LU99A = system: LU99A
Method in brief: as §1

HCC-366 = system: HCC-366
Method in brief: as §1

HOP-62 = system: HOP-62
Method in brief: as §1

LXF-289 = system: LXF-289
Method in brief: as §1

LC-2-ad = system: LC-2-ad
Method in brief: as §1

HCC-827 = system: HCC-827
Method in brief: as §1

NCI-H522 = system: NCI-H522
Method in brief: as §1

HCC-15 = system: HCC-15
Method in brief: as §1

PC-3 [JPC-3] = system: PC-3 [JPC-3]
Method in brief: as §1

COR-L23 = system: COR-L23
Method in brief: as §1

NCI-H2087 = system: NCI-H2087
Method in brief: as §1

CAL-12T = system: CAL-12T
Method in brief: as §1

HARA = system: HARA
Method in brief: as §1

NCI-H2170 = system: NCI-H2170
Method in brief: as §1

LCLC-97TM1 = system: LCLC-97TM1
Method in brief: as §1

HCC-44 = system: HCC-44
Method in brief: as §1

COR-L 105 = system: COR-L 105
Method in brief: as §1

`COCC1(CO)C(=O)C2CCN1CC2` (stereo not drawn) [PRIMA-1MET] + N=C(N)NC(=N)NCCc1ccccc1 [Phenformin] (partner 250 µM) gave a relative viability (NCI-H1993; first compound 0.2 µM) of 0.503, a relative viability (NCI-H1993; first compound 0.6325 µM) of 0.526 and a relative viability (NCI-H1993; first compound 2 µM) of 0.496. It also gave a relative viability (NCI-H1993; first compound 6.325 µM) of 0.544, a relative viability (NCI-H1993; first compound 20 µM) of 0.57 and a relative viability (NCI-H2126; first compound 0.2 µM) of 0.568. For the same compound, the relative viability (NCI-H2126; first compound 0.6325 µM) was 0.532, the relative viability (NCI-H2126; first compound 2 µM) was 0.513 and the relative viability (NCI-H2126; first compound 6.325 µM) was 0.577. The relative viability (NCI-H2126; first compound 20 µM) was 0.531, the relative viability (NCI-H2009; first compound 0.2 µM) was 0.497 and the relative viability (NCI-H2009; first compound 0.6325 µM) was 0.456. It also gave a relative viability (NCI-H2009; first compound 2 µM) of 0.519, a relative viability (NCI-H2009; first compound 6.325 µM) of 0.53 and a relative viability (NCI-H2009; first compound 20 µM) of 0.217. For the same compound, the relative viability (PC-14; first compound 0.2 µM) was 0.621, the relative viability (PC-14; first compound 0.6325 µM) was 0.503 and the relative viability (PC-14; first compound 2 µM) was 0.735. For the same compound, the relative viability (PC-14; first compound 6.325 µM) was 0.379, the relative viability (PC-14; first compound 20 µM) was 0.0559 and the relative viability (SK-MES-1; first compound 0.2 µM) was 0.724. It also gave a relative viability (SK-MES-1; first compound 0.6325 µM) of 0.731, a relative viability (SK-MES-1; first compound 2 µM) of 0.722 and a relative viability (SK-MES-1; first compound 6.325 µM) of 0.663. The relative viability (SK-MES-1; first compound 20 µM) was 0.615, the relative viability (LU99A; first compound 0.2 µM) was 0.646 and the relative viability (LU99A; first compound 0.6325 µM) was 0.736. For the same compound, the relative viability (LU99A; first compound 2 µM) was 0.734, the relative viability (LU99A; first compound 6.325 µM) was 0.831 and the relative viability (LU99A; first compound 20 µM) was 0.0482. The relative viability (HCC-366; first compound 0.2 µM) was 0.651, the relative viability (HCC-366; first compound 0.6325 µM) was 0.611 and the relative viability (HCC-366; first compound 2 µM) was 0.484. It also gave a relative viability (HCC-366; first compound 6.325 µM) of 0.633, a relative viability (HCC-366; first compound 20 µM) of 0.462 and a relative viability (HOP-62; first compound 0.2 µM) of 0.668. It also gave a relative viability (HOP-62; first compound 0.6325 µM) of 0.686, a relative viability (HOP-62; first compound 2 µM) of 0.648 and a relative viability (HOP-62; first compound 6.325 µM) of 0.694. The relative viability (HOP-62; first compound 20 µM) was 0.311, the relative viability (LXF-289; first compound 0.2 µM) was 0.491 and the relative viability (LXF-289; first compound 0.6325 µM) was 0.482. For the same compound, the relative viability (LXF-289; first compound 2 µM) was 0.428, the relative viability (LXF-289; first compound 6.325 µM) was 0.513 and the relative viability (LXF-289; first compound 20 µM) was 0.456. For the same compound, the relative viability (LC-2-ad; first compound 0.2 µM) was 0.548, the relative viability (LC-2-ad; first compound 2 µM) was 0.49 and the relative viability (LC-2-ad; first compound 6.325 µM) was 0.568. It also gave a relative viability (LC-2-ad; first compound 20 µM) of 0.36, a relative viability (HCC-827; first compound 0.2 µM) of 0.433 and a relative viability (HCC-827; first compound 0.6325 µM) of 0.416. The relative viability (HCC-827; first compound 2 µM) was 0.344, the relative viability (HCC-827; first compound 6.325 µM) was 0.367 and the relative viability (HCC-827; first compound 20 µM) was 0.372. The relative viability (NCI-H522; first compound 0.2 µM) was 0.626, the relative viability (NCI-H522; first compound 0.6325 µM) was 0.459 and the relative viability (NCI-H522; first compound 2 µM) was 0.534. It also gave a relative viability (NCI-H522; first compound 6.325 µM) of 0.619, a relative viability (NCI-H522; first compound 20 µM) of 0.142 and a relative viability (HCC-15; first compound 0.2 µM) of 0.427. It also gave a relative viability (HCC-15; first compound 0.6325 µM) of 0.471, a relative viability (HCC-15; first compound 2 µM) of 0.439 and a relative viability (HCC-15; first compound 6.325 µM) of 0.451. The relative viability (HCC-15; first compound 20 µM) was 0.172, the relative viability (PC-3 [JPC-3]; first compound 0.2 µM) was 0.464 and the relative viability (PC-3 [JPC-3]; first compound 0.6325 µM) was 0.456. The relative viability (PC-3 [JPC-3]; first compound 2 µM) was 0.462, the relative viability (PC-3 [JPC-3]; first compound 6.325 µM) was 0.477 and the relative viability (PC-3 [JPC-3]; first compound 20 µM) was 0.466. It also gave a relative viability (COR-L23; first compound 0.2 µM) of 0.554, a relative viability (COR-L23; first compound 0.6325 µM) of 0.413 and a relative viability (COR-L23; first compound 2 µM) of 0.477. It also gave a relative viability (COR-L23; first compound 6.325 µM) of 0.343, a relative viability (COR-L23; first compound 20 µM) of 0.0169 and a relative viability (NCI-H2087; first compound 0.2 µM) of 0.315. For the same compound, the relative viability (NCI-H2087; first compound 0.6325 µM) was 0.332, the relative viability (NCI-H2087; first compound 2 µM) was 0.494 and the relative viability (NCI-H2087; first compound 6.325 µM) was 0.463. The relative viability (NCI-H2087; first compound 20 µM) was 0.168, the relative viability (CAL-12T; first compound 0.2 µM) was 0.52 and the relative viability (CAL-12T; first compound 0.6325 µM) was 0.592. For the same compound, the relative viability (CAL-12T; first compound 2 µM) was 0.586, the relative viability (CAL-12T; first compound 6.325 µM) was 0.519 and the relative viability (CAL-12T; first compound 20 µM) was 0.0696. The relative viability (HARA; first compound 0.2 µM) was 0.526, the relative viability (HARA; first compound 0.6325 µM) was 0.421 and the relative viability (HARA; first compound 6.325 µM) was 0.538. For the same compound, the relative viability (HARA; first compound 20 µM) was 0.409, the relative viability (NCI-H2170; first compound 0.2 µM) was 0.418 and the relative viability (NCI-H2170; first compound 0.6325 µM) was 0.416. The relative viability (NCI-H2170; first compound 2 µM) was 0.38, the relative viability (NCI-H2170; first compound 6.325 µM) was 0.405 and the relative viability (NCI-H2170; first compound 20 µM) was 0.376. The relative viability (LCLC-97TM1; first compound 0.2 µM) was 0.436, the relative viability (LCLC-97TM1; first compound 0.6325 µM) was 0.437 and the relative viability (LCLC-97TM1; first compound 2 µM) was 0.484. It also gave a relative viability (LCLC-97TM1; first compound 6.325 µM) of 0.448, a relative viability (LCLC-97TM1; first compound 20 µM) of 0.347 and a relative viability (HCC-44; first compound 0.2 µM) of 0.265. It also gave a relative viability (HCC-44; first compound 0.6325 µM) of 0.137, a relative viability (HCC-44; first compound 2 µM) of 0.244 and a relative viability (HCC-44; first compound 6.325 µM) of 0.2. It also gave a relative viability (HCC-44; first compound 20 µM) of 0.236, a relative viability (COR-L 105; first compound 0.2 µM) of 0.547 and a relative viability (COR-L 105; first compound 0.6325 µM) of 0.438. It also gave a relative viability (COR-L 105; first compound 2 µM) of 0.373, a relative viability (COR-L 105; first compound 6.325 µM) of 0.459 and a relative viability (COR-L 105; first compound 20 µM) of 0.124.
